# Results taken from patent US6492391B1, “Crystal modification d of 8-cyano-1-cyclopropyl-7-(1s, 6s- 2,8-diazabicyclo-[4.3.0]nonan-8-yl)-6-fluoro-1,4- dihydro-4-oxo-3-quinolinecarboxylic acid” (Bayer Aktiengesellschaft, priority 1999, dated 2002).
# Tests used:
# pathogenic bacteria = experiment: activity against pathogenic bacteria; settings: human or veterinary medicine
# From the text: Its broad area of use corresponds to that of CCDC.
# [1] = storage stability of the crystal modification; assay type: physicochemical; settings: prolonged storage; solid state
# From the text: For these reasons, it is highly suitable for preparing tablets or other solid formulations. Owing to its stability, it gives these formulations the desired long-lasting storage stability. Using the crystal modification D, it is therefore possible to prepare, in a defined and targeted manner, stable solid preparations of CCDC.
# [2] = hygroscopicity of the solid; assay type: physicochemical; settings: powder obtained by the prior-art preparation process
# From the text: The partially amorphous powder which is obtained by the preparation process outlined above is furthermore hygroscopic. However, amorphous solids, and in particular hygroscopic solids, are difficult to handle when being processed pharmaceutically since, for example, they have low bulk densities and unsatisfactory flow properties. Moreover, the handling of hygroscopic solids requires special work techniques and apparatuses to obtain reproducible results, for example with respect to the active compound content or the stability of the solid formulations produced.
SMILES,activity against pathogenic bacteria (pathogenic bacteria),stability of the crystal modification on storage [1],hygroscopicity [2]
"N#Cc1c(N2C[C@@H]3CCCN[C@@H]3C2)c(F)cc2c(=O)c(C(=O)O)cn(C3CC3)c12 [CCDC of the crystal modification D, 8-cyano-1-cyclopropyl-7-(1S,6S-2,8-diazabicyclo[4.3.0]nonan-8-yl)-6-fluoro-1,4-dihydro-4-oxo-3-quinolinecarboxylic acid]",highly active,"surprisingly stable and does not change into another crystal modification or the amorphous form, even on prolonged storage",
"N#Cc1c(N2C[C@@H]3CCCN[C@@H]3C2)c(F)cc2c(=O)c(C(=O)O)cn(C3CC3)c12 [partially amorphous powder, 8-cyano-1-cyclopropyl-7-(1S,6S-2,8-diazabicyclo[4.3.0]nonan-8-yl)-6-fluoro-1,4-dihydro-4-oxo-3-quinolinecarboxylic acid]",,,hygroscopic
